Counter-ions that a name gives are not always drawn. Like-named read-outs stand apart in the source and are kept apart here.
Legend:
Format in all cases: in vivo
[1] = Locomotor activity in the rat, oral (inhibition of spontaneous motility, photoelectric cell); details: for ED50 at 0.5 h / selectivity ratio: in vivo; for ED50 at 0.5 h: female rats, oral dose inhibiting spontaneous motility by 50%, pulses during 10 minutes, 30 minutes after treatment, read-out: C locom. act. inhibition ID50; for selectivity ratio: ratio locomotor ID50 / anorexiant ED50 (therapeutic index), read-out: C/B; for selectivity ratio / inhibition of locomotor activity (in words): oral; for inhibition of locomotor activity (in words): relative to anorexiant ED50
Protocol: The products were also assessed as a function of their action on the locomotor activity in the rat. To this end, female rats weighing about 200 g were used, to which the compounds were administered by the oral route. After 30 minutes, the treated animals were placed in a cage (80×80 cm) provided with a photoelectric cell for measuring the spontaneous movements, and the number of pulses transmitted to the cell for 10 minutes was recorded. The inhibition of the locomotor activity of each substance (6 to 10 animals per dose) was expressed as a percentage with respect to the controls.
the action on the locomotor activity, expressed as oral dose inhibiting by 50% the spontaneous motility, namely the number of pulses transmitted to the photoelectric cell during the 10 minutes (ID50, data C);

[2] = Anorexiant activity, food consumption method in the rat, oral (ED50); details: for ED50: read-out: B anorexiant activity ED50; for anorexiant activity (in words): oral
Protocol: (§1) The anorexiant activity was assessed by the food consumption method in the rat. Female rats weighing 200 g were used, trained for 10 days to eat during a period of 4 hours and selected on the eighth day. After the tenth day, the randomized animals were divided into a "control group", treated solely with the carrier, and into several "treated groups". The treatment was effected by the intraperitoneal route 30 minutes before the presentation of food and the quantity of food consumed in the course of the first hour was then measured. The data in Table I indicate the percentage of inhibition of the food consumption of the animals treated with the compounds according to the present invention with respect to the controls.
The anorexiant activity by the oral route of a product according to the present invention, 4-amino-1-(6-chloro-2-pyridyl)piperidine in the form of mono hydrochloride (CM 57227, compound of Example 1), was tested in accordance with the food consumption method described hereinabove; as well known anorexiant product, fenfluramine, as well as 1-(6-chloro-2-pyridyl)piperazine in the form of monohydrochloride, described in U.S. Pat. No. 4,078,063, and 1-(6-chloro-2-pyrazinyl) piperazine in monohydrochloride form, described in British Pat. No. 1,492,528, were used as reference products.
the anorexiant activity, expressed as oral dose inhibiting by 50% the food consumption (ED50, data B);

cerebral serotonin = experiment: Cerebral levels of serotonin after intraperitoneal administration in the rat; details: for Cerebral levels of serotonin % with respect to controls: 60 minutes before sacrifice
Protocol: Table III below summarises the cerebral levels of serotonin after intraperitoneal administration in the rat of a compound according to the present invention, 4-amino-1-(6-chloro-2-pyridyl) piperidine in monohydrochloride form (CM 57227, product of Example 1). Fenfluramine was used as reference product.
The animals were treated 60 minutes before sacrifice.

[3] = Acute toxicity, LD50 in the rat by the oral route; details: in vivo; for selectivity ratio: ratio acute toxicity LD50 / anorexiant ED50 (therapeutic index), read-out: A/B
Text: (§2) the acute toxicity, expressed at LD50 in the rat by the oral route (data A);

rat = experiment: Acute toxicity, LD50 in the rat by the oral route
Text: as §2

male mice = experiment: Acute toxicity, zone of mortality, mice, intraperitoneal; details: i.p., 48 h observation, doses with lowest (at least 1 death) and highest mortality
Protocol: With respect to their degree of activity, the 4-amino-1-(2-pyridyl)piperidines of the present invention are sparingly toxic and present a good therapeutic index. In Table I hereinbelow, the acute toxicity is expressed in the form of "zone of mortality". 6 batches of male mice weighing about 20 g were used, in which were injected the compounds of the present invention, dissolved or suspended in carboxymethylcellulose, by the intraperitoneal route, at at least four doses for each batch of animals. […] The "mortality zone" is represented by the doses at which the lowest mortality (at least 1 death) and the highest are observed.

[4] = Anorexiant activity, food consumption method in the rat, intraperitoneal; details: female rats, i.p., food consumed in first hour, vs controls
Protocol: as §1

SMILES	ED50 at 0.5 h [1] [mg/kg]	selectivity ratio [1]	inhibition of locomotor activity (in words) [1]	ED50 ([2]; Rattus norvegicus, po) [mg/kg]	selectivity ratio [3]	Mortality zone (male mice) [mg/kg]	LD50 [3] [mg/kg]	further results
CCNC(C)Cc1cccc(C(F)(F)F)c1 (centres unmarked) [fenfluramine]	12	3	much greater inhibiting action on the locomotor activity	4	25.2	–	–	Cerebral levels of serotonin % with respect to controls (cerebral serotonin; 3.75 mg/kg i.p., * significant: p < 0.01): 69%; Cerebral levels of serotonin % with respect to controls (cerebral serotonin; 7.5 mg/kg i.p., * significant: p < 0.01): 51%; Cerebral levels of serotonin % with respect to controls (cerebral serotonin; 15 mg/kg i.p., * significant: p < 0.01): 42%; cerebral levels of serotonin (in words) (cerebral serotonin; i.p., anorexiant or equivalent doses): causes a significant reduction in cerebral serotonin; A Acute toxicity LD50 (rat): 100.9 mg/kg; therapeutic index A/B, comparison (in words) (rat): almost equal to that of the 4-amino-1-(6-chloro-2-pyridyl)piperidine of the present invention
NC1CCN(c2cccc(OCC(F)(F)F)n2)CC1 [CM 57385, 4-amino-1-[6-(2,2,2-trifluoro)ethoxy-2-pyridyl] piperidine]	–	–	–	–	–	150 to 250	–	Food consumption % inhibition ([4]; 30 mg/kg): 78.2%
Clc1cncc(N2CCNCC2)n1 [1-(6-chloro-2-pyrazinyl)piperazine HCl, 1-(6-chloro-2-pyrazinyl) piperazine]	0.6	0.3	inhibit the locomotor activity at doses even lower than the anorexiant ED50	1.7	46.8	–	79.6	anorexiant activity (in words) ([2]; rat): very active as anorexiants
Cc1cccc(N2CCC(N)CC2)n1 [CM 57371, 4-amino-1-(6-methyl-2-pyridyl)piperidine]	–	–	–	–	–	175 to 225	–	Food consumption % inhibition ([4]; 40 mg/kg): 77.2%
COc1cccc(N2CCC(N)CC2)n1 [CM 57366, 4-amino-1-(6-methoxy-2-pyridyl) piperidine]	–	–	–	–	–	150 to 200	–	Food consumption % inhibition ([4]; 30 mg/kg): 67.0%
NC1CCN(c2cccc(Cl)n2)CC1 [CM 57227, 4-amino-1-(6-chloro-2-pyridyl) piperidine]	60	7.7	–	–	24.3	100 to 150	190	ED50 ([2]; rat, oral dose inhibiting food consumption by 50%): 7.8 mg/kg; Food consumption % inhibition ([4]; 10 mg/kg): 70.8%; Cerebral levels of serotonin % with respect to controls (cerebral serotonin; 5 mg/kg i.p.): 105%; Cerebral levels of serotonin % with respect to controls (cerebral serotonin; 10 mg/kg i.p.): 120%
NC1CCN(c2cccc(Br)n2)CC1 [CM 57373, 4-amino-1-(6-bromo-2-pyridyl) piperidine]	–	–	–	–	–	100 to 175	–	Food consumption % inhibition ([4]; 20 mg/kg): 89.8%
NC1CCN(c2cccc(Sc3ccccc3)n2)CC1 [CM 57369, 4-amino-1-(6-phenylthio-2-pyridyl)piperidine]	–	–	–	–	–	150 to 200	–	Food consumption % inhibition ([4]; 40 mg/kg): 95.2%
Clc1cccc(N2CCNCC2)n1 [1-(6-chloro-2-pyridyl)piperazine HCl, 1-(6-chloro-2-pyridyl)piperazine]	2.1	0.58	inhibit the locomotor activity at doses even lower than the anorexiant ED50	3.6	48.3	–	174	anorexiant activity (in words) ([2]; rat): very active as anorexiants

— US4409228A, “Andrexiant aminopiperidines intermediates thereto and drugs containing same” (Sanofi, priority 1979, dated 1983)
